What all share (type): physicochemical
Series [1] is described as follows: Solubility in liquid paraffin (mineral oil) at 23. To be noted: organic solvent or mixture. From the text:
In particular, their solubilities in liquid paraffin are as follows:
Ester paraffin at 23 (% wt/vol)

A short description of series [2]: Ultra-violet absorption (absorptivity, absorption maximum). The settings on record: for Absorptivity: c in g/l, path length b in centimeters. As for the experimental part:
The absorptivity of the following p-dimethylaminocinnamate was measured using the formula [formula] wherein c is concentration in g/l and b is path length in centimeters: […]

Series [3] in a line: Miscibility with liquid paraffin (mineral oil), methanol and water.
A short description of series [4]: Physical state at room temperature.

≈ marks a conversion by molar mass, not a printed value.

On to `CC1CC(OC(=O)C=Cc2ccc(N(C)C)cc2)CC(C)(C)C1` (centres unmarked) [(e), 3,3,5-trimethylcyclohexyl p-dimethylaminocinnamate], for which, in series [1], the solubility (commonly the concentration that dissolves in the medium under given conditions) is 12 mg/mL (≈ 38 mM).

On to `CC(C)CCOC(=O)C=Cc1ccc(N(C)C)cc1` [(a), 3-methylbutyl-p-dimethylaminocinnamate], for which the solubility in series [1] turned out to be 24 mg/mL (≈ 91.8 mM).

Regarding `CC(CCOC(=O)C=Cc1ccc(N(C)C)cc1)CC(C)(C)C` (centres unmarked) [(d), 3,5,5-trimethylhexyl p-dimethylaminocinnamate], in series [1], the solubility was 29 mg/mL (≈ 91.3 mM).

Turning to `CCCCCCCCCCOC(=O)C=Cc1ccc(N(C)C)cc1` [(f), 1-decyl p-dimethylaminocinnamate], the solubility in series [1] turned out to be 21 mg/mL (≈ 63.3 mM).

`CCOC(=O)C=Cc1ccc(N(C)C)cc1` [(2), ethyl p-dimethylaminocinnamate, reference compound]: the Absorptivity in series [2] was 125 L/g/cm.

Consider `CCCCCCC(C)OC(=O)C=Cc1ccc(N(C)C)cc1` (centres unmarked) [Example 2-Octyl, 2-octyl 4-dimethylaminocinnamate], for which, in series [3], the “miscibility with liquid paraffin (mineral oil)” value was “completely miscible” and the miscibility with methanol entry is “completely miscible”. Moreover, the “physical state at room temperature” value in series [4] is “liquid at room temperature”. The compound also showed an Absorptivity in series [2] of 95 L/g/cm.

As to `CCCCC(CC)COC(=O)C=Cc1ccc(N(C)C)cc1` (centres unmarked) [Example 2-Ethylhexyl, 2-Ethylhexyl 4-dimethylaminocinnamate], in series [3], the “miscibility with liquid paraffin (mineral oil)” value was “completely miscible” and the miscibility with methanol result is on record as “completely miscible”. Besides, the “physical state at room temperature” value in series [4] is recorded as “liquid at room temperature”. Also, the λmax in series [2] (Example 1, prepared product) was 360 nm. Further, in series [2], the Absorptivity amounted to 101 L/g/cm.

`CCCCCCCOC(=O)C=Cc1ccc(N(C)C)cc1` [(b), 1-heptyl p-dimethylaminocinnamate]: the solubility in series [1] was 21 mg/mL (≈ 72.6 mM).

On to `CCCCCCCCOC(=O)C=Cc1ccc(N(C)C)cc1` [(c), 1-octyl p-dimethylaminocinnamate, reference compound], for which the solubility in series [1] came to 25 mg/mL (≈ 82.4 mM). This compound had an Absorptivity in series [2] of 89 L/g/cm.

The values are drawn from patent US4592906A, “Ultra-violet absorbing compounds and compositions containing said compounds” (Graesser Laboratories, Ltd., priority 1984, dated 1986).
